These results are taken from patent US20080279868A1, “Antibody-Drug Conjugates and Methods of Use” (priority 2005, published 2008).

A short description of the series: Rate of cyclization of 6-membered hydrazine linker in buffer. Format: physicochemical. To be noted: for rate of cyclization of the hydrazine linker: buffer at pH 7.4. The protocol:
A duocarmycin analog conjugated to a dimethyl 6-membered hydrazine linker was incubated in buffer at pH 7.4 for 24 hours and the generation of cyclized product resulting from cyclization of the hydrazine linker, thereby releasing free duocarmycin analog, was assessed over time.
A duocarmycin analog conjugated to a gem-dimethyl 6-membered hydrazine linker was incubated in buffer at pH 7.4 and the generation of cyclized product resulting from cyclization of the hydrazine linker, thereby releasing free duocarmycin analog, was assessed over time.

Turning to `COC(=O)c1c(C)[nH]c2c(OC(=O)N(C)CC(=O)N(C)N)cc3c(c12)[C@H](CCl)CN3C(=O)c1cc2cc(OC)ccc2o1`, the “rate of cyclization of the hydrazine linker” value is reported as “relatively slow rate of cyclization”. The “generation of cyclized product resulting from cyclization of the hydrazine linker” value (buffer at pH 7.4, over 24 hours) is “Minimal amounts of cyclized product”.

Take `COC(=O)c1c(C)[nH]c2c(OC(=O)N(C)C(C)(C)C(=O)N(C)N)cc3c(c12)[C@H](CCl)CN3C(=O)c1cc2cc(OC)ccc2o1`: the “rate of cyclization of the hydrazine linker” value is given as “proceeding to completion within a few minutes”.
